Results reported in ChEMBL document CHEMBL3994622, “Design and synthesis of new RAF kinase-inhibiting antiproliferative quinoline derivatives. Part 2: Diarylurea derivatives” (Eur J Med Chem, 2017).

Legend:
NCI-H460 = assay: Growth inhibition of human NCI-H460 cells incubated for 48 hrs by sulforhodamine B assay; format: functional; details: NCI-H460, 48 h
BT-549 = assay: Growth inhibition of human BT549 cells incubated for 48 hrs by sulforhodamine B assay; format: functional; details: BT-549, 48 h
OVCAR-4 = assay: Growth inhibition of human OVCAR4 cells incubated for 48 hrs by sulforhodamine B assay; format: functional; details: OVCAR-4, 48 h
RXF 393 = assay: Growth inhibition of human RXF393 cells incubated for 48 hrs by sulforhodamine B assay; format: functional; details: RXF 393, 48 h
HCT-116 = assay: Growth inhibition of human HCT116 cells incubated for 48 hrs by sulforhodamine B assay; format: functional; details: HCT-116, 48 h
OVCAR-3 = assay: Growth inhibition of human OVCAR3 cells incubated for 48 hrs by sulforhodamine B assay; format: functional; details: OVCAR-3, 48 h
IGROV-1 = assay: Growth inhibition of human IGROV1 cells incubated for 48 hrs by sulforhodamine B assay; format: functional; details: IGROV-1, 48 h
HCT-15 = assay: Growth inhibition of human HCT15 cells incubated for 48 hrs by sulforhodamine B assay; format: functional; details: HCT-15, 48 h
SK-OV-3 = assay: Growth inhibition of human SKOV3 cells incubated for 48 hrs by sulforhodamine B assay; format: functional; details: SK-OV-3, 48 h
OVCAR-5 = assay: Growth inhibition of human OVCAR5 cells incubated for 48 hrs by sulforhodamine B assay; format: functional; details: OVCAR-5, 48 h
MDA-MB-435 = assay: Growth inhibition of human MDA-MB-435 cells incubated for 48 hrs by sulforhodamine B assay; format: functional; details: MDA-MB-435, 48 h
SF-539 = assay: Growth inhibition of human SF539 cells incubated for 48 hrs by sulforhodamine B assay; format: functional; details: SF-539, 48 h
NCI-H322M = assay: Growth inhibition of human NCI-H322M cells incubated for 48 hrs by sulforhodamine B assay; format: functional
ACHN = assay: Growth inhibition of human ACHN cells incubated for 48 hrs by sulforhodamine B assay; format: functional
A549 = assay: Growth inhibition of human A549/ATCC cells incubated for 48 hrs by sulforhodamine B assay; format: functional; details: A549, 48 h
HOP-92 = assay: Growth inhibition of human HOP92 cells incubated for 48 hrs by sulforhodamine B assay; format: functional; details: HOP-92, 48 h
Malme-3M = assay: Growth inhibition of human MALME-3M cells incubated for 48 hrs by sulforhodamine B assay; format: functional
SK-MEL-28 = assay: Growth inhibition of human SK-MEL-28 cells incubated for 48 hrs by sulforhodamine B assay; format: functional; details: SK-MEL-28, 48 h
T47D = assay: Growth inhibition of human T47D cells incubated for 48 hrs by sulforhodamine B assay; format: functional
LOX IMVI = assay: Growth inhibition of human LOXIMVI cells incubated for 48 hrs by sulforhodamine B assay; format: functional
RPMI-8226 = assay: Growth inhibition of human RPMI8226 cells incubated for 48 hrs by sulforhodamine B assay; format: functional; details: RPMI-8226, 48 h
UO-31 = assay: Growth inhibition of human UO31 cells incubated for 48 hrs by sulforhodamine B assay; format: functional; details: UO-31, 48 h
A498 = assay: Growth inhibition of human A498 cells incubated for 48 hrs by sulforhodamine B assay; format: functional; details: A498, 48 h
HCC 2998 = assay: Growth inhibition of human HCC2998 cells incubated for 48 hrs by sulforhodamine B assay; format: functional; details: HCC 2998, 48 h
SW-620 = assay: Growth inhibition of human SW620 cells incubated for 48 hrs by sulforhodamine B assay; format: functional; details: SW-620, 48 h
MDA-MB-231 = assay: Growth inhibition of human MDA-MB-231 cells incubated for 48 hrs by sulforhodamine B assay; format: functional; details: MDA-MB-231, 48 h
[1] = target: RAF proto-oncogene serine/threonine-protein kinase (Homo sapiens, UniProt P04049); assay: Inhibition of human c-RAF at 10 uM using MEK1 as substrate in presence of [33P]ATP by Hotspot assay relative to control
Chain of RAF proto-oncogene serine/threonine-protein kinase (P04049 whole entry): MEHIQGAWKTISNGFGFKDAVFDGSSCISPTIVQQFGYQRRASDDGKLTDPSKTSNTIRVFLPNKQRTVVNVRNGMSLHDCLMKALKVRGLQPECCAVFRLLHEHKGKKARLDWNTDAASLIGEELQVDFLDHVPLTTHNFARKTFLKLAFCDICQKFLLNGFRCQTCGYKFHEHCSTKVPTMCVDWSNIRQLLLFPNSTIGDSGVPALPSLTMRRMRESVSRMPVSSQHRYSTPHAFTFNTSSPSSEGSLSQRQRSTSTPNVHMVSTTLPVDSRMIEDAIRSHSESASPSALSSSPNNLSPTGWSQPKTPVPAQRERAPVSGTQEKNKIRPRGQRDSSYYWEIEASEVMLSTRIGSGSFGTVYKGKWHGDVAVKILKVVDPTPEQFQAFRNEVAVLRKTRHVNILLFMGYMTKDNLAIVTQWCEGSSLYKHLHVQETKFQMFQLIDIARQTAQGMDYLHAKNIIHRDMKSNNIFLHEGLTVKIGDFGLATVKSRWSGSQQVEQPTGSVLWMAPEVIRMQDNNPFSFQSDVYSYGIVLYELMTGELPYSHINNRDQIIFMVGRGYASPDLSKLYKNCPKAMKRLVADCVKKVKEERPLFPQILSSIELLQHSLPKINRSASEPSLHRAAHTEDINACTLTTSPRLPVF

EKVX = assay: Growth inhibition of human EKVX cells incubated for 48 hrs by sulforhodamine B assay; format: functional
MOLT-4 = assay: Growth inhibition of human MOLT4 cells incubated for 48 hrs by sulforhodamine B assay; format: functional; details: MOLT-4, 48 h
U-251 = assay: Growth inhibition of human U251 cells incubated for 48 hrs by sulforhodamine B assay; format: functional; details: U-251, 48 h
SK-MEL-2 = assay: Growth inhibition of human SK-MEL-2 cells incubated for 48 hrs by sulforhodamine B assay; format: functional; details: SK-MEL-2, 48 h
OVCAR-8 = assay: Growth inhibition of human OVCAR8 cells incubated for 48 hrs by sulforhodamine B assay; format: functional; details: OVCAR-8, 48 h
[2] = read-out: LC50 (the source's name)

COc1cc2cc(Oc3ccc(NC(=O)Nc4cc(C(F)(F)F)cc(C(F)(F)F)c4)cc3)c(C)nc2cc1OC
GI50 (NCI-H460): 0.96 µM
TGI (NCI-H460): 2.72 µM
CC50 (NCI-H460; [2]): 7.53 µM
GI50 (BT-549): 1.75 µM
TGI (BT-549): 3.76 µM
CC50 (BT-549; [2]): 30.1 µM
GI50 (OVCAR-4): 1.22 µM
TGI (OVCAR-4): 4.44 µM
CC50 (OVCAR-4; [2]): 80.2 µM
GI50 (RXF 393): 2.06 µM
TGI (RXF 393): 4.78 µM
CC50 (RXF 393; [2]): 5.94 µM
GI50 (HCT-116): 0.589 to 0.59 µM
LC50 (50% lethal concentration) (HCT-116): 5.16 µM
TGI (HCT-116): 1.92 µM
GI50 (OVCAR-3): 0.488 to 0.49 µM
TGI (OVCAR-3): 1.7 µM
CC50 (OVCAR-3; [2]): 4.52 µM
GI50 (IGROV-1): 0.51 µM
TGI (IGROV-1): 2.3 µM
CC50 (IGROV-1; [2]): 8.68 µM
GI50 (HCT-15): 0.668 to 0.67 µM
LC50 (lethal concentration, 50% net cell kill) (HCT-15): 4.91 µM
TGI (HCT-15): 2.04 µM
GI50 (SK-OV-3): 1.71 µM
TGI (SK-OV-3): 3.47 µM
CC50 (SK-OV-3; [2]): 5.91 µM
GI50 (OVCAR-5): 1.93 µM
TGI (OVCAR-5): 4.14 µM
CC50 (OVCAR-5; [2]): 8.88 µM
GI50 (MDA-MB-435): 1.8 µM
TGI (MDA-MB-435): 4.28 µM
CC50 (MDA-MB-435; [2]): 11.6 µM
GI50 (SF-539): 1.45 µM
TGI (SF-539): 3.21 µM
CC50 (SF-539; [2]): 7.11 µM
GI50 (NCI-H322M): 1.16 µM
TGI (NCI-H322M): 2.57 µM
CC50 (NCI-H322M; [2]): 5.7 µM
GI50 (ACHN): 0.39 µM
TGI (ACHN): 1.69 µM
CC50 (ACHN; [2]): 51.6 µM
GI50 (A549): 1.42 µM
TGI (A549): 4.75 µM
CC50 (A549; [2]): 22.5 µM
GI50 (HOP-92): 1.12 µM
LC50 (HOP-92): 40.9 µM
TGI (HOP-92): 3.9 µM
GI50 (Malme-3M): 1.1 µM
TGI (Malme-3M): 3.46 µM
CC50 (Malme-3M; [2]): 13.6 µM
GI50 (SK-MEL-28): 1.19 µM
TGI (SK-MEL-28): 3.09 µM
CC50 (SK-MEL-28; [2]): 8.03 µM
GI50 (T47D): 1.48 µM
TGI (T47D): 5.67 µM
CC50 (T47D; [2]): 29.1 µM
GI50 (LOX IMVI): 1.44 µM
TGI (LOX IMVI): 2.96 µM
CC50 (LOX IMVI; [2]): 6.12 µM
GI50 (RPMI-8226): 0.41 to 0.46 µM
LC50 (lethal concentration, 50% cell kill) (RPMI-8226): > 100 µM
TGI (RPMI-8226): 5.51 µM
GI50 (UO-31): 0.266 to 0.27 µM
TGI (UO-31): 1.65 µM
CC50 (UO-31; [2]): 35.1 µM
GI50 (A498): 1.6 µM
TGI (A498): 4.29 µM
CC50 (A498; [2]): 7.98 µM
GI50 (HCC 2998): 1.53 µM
TGI (HCC 2998): 3.15 µM
CC50 (HCC 2998; [2]): 6.49 µM
GI50 (SW-620): 1.94 µM
LC50 (SW-620): 39.3 µM
TGI (SW-620): 5.71 µM
GI50 (MDA-MB-231): 1.08 µM
TGI (MDA-MB-231): 2.49 µM
CC50 (MDA-MB-231; [2]): > 100 µM
inhibition [1]: 92.4%
GI50 (EKVX): 1 µM
LC50 (concentration killing 50% of cells) (EKVX): 8.88 µM
TGI (EKVX): 2.98 µM
GI50 (MOLT-4): 1.13 µM
LC50 (MOLT-4): > 100 µM
TGI (MOLT-4): 4.04 µM
GI50 (U-251): 1.08 µM
TGI (U-251): 2.47 µM
CC50 (U-251; [2]): 5.61 µM
GI50 (SK-MEL-2): 1.82 µM
TGI (SK-MEL-2): 4.24 µM
CC50 (SK-MEL-2; [2]): 9.88 µM
GI50 (OVCAR-8): 1.63 µM
TGI (OVCAR-8): 4.22 µM
CC50 (OVCAR-8; [2]): > 100 µM
